# Measurements as given in PMC9775191, “A Subset Screen of the Compounds Australia Scaffold Library Identifies 7-Acylaminodibenzoxazepinones as Potent and Selective Hits for Anti-Giardia Drug Discovery” (Biomedicines, 2022).
# Tested on: G. duodenalis BRIS/91/HEPU/1279
# Experiment: Primary Giardia screen at 10 µM (live-cell imaging, automated counting)
# Type: cell-based, Giardia duodenalis
# Details: 48 h, first singlicate assay
# Protocol: Each compound was assessed in singlicate, at a final concentration of 10 μM (0.4 μL of a 5 mM stock; diluted to a final volume of 200 μL in culture medium; 0.2% DMSO). […] Plates were incubated in sealed chambers filled with 3% O2, 5% CO2 in N2 and growth was assessed at 24 and 48 h using live cell imaging and automated counting as previously described. Growth inhibition was calculated by subtracting media only background counts and determining percentage growth relative to vehicle (0.2% DMSO) controls. The reliability of these assays was assessed by calculating Z’ factors for each plate as previously described.
row,SMILES,% Inhibition n=1 48h
1,Cc1ccc(C)c(NC(=O)N2CCC(c3c[nH]c4ncccc34)CC2)c1 [SN00780701],0.0%
2,c1ccc(CCN2CCC(c3c[nH]c4ncccc34)CC2)nc1 [SN00780706],11.5%
3,CCCc1cc(N2CCOCC2)n2nc(C)c(-c3ccccc3)c2n1 [SN00780810],20.2%
4,O=C(C1CC=CCC1)N1CCN(S(=O)(=O)c2c[nH]c3ncccc23)CC1 (centres unmarked) [SN00781077],7.5%
5,CCCCC(=O)N1CCN(S(=O)(=O)c2c[nH]c3ncccc23)CC1 [SN00781078],2.4%
6,O=C(Cc1ccccc1Cl)NCCc1noc(-c2ccccn2)n1 [SN00781138],21.7%
7,CNC(=O)Cc1noc(-c2cccc(-n3cccn3)n2)n1 [SN00781149],4.9%
8,O=S(=O)(Cc1ccc(C(F)(F)F)cc1)Cc1noc(C2CC2)n1 [SN00781153],0.0%
9,CN1CCN(CC2CCN(c3ccc([N+](=O)[O-])cc3Cl)CC2)CC1 [SN00781176],33.0%
10,N/C(=N/OCc1ncc(-c2cccs2)o1)c1ccc(Oc2ccc(F)cc2)nc1 [SN00781212],41.6%
11,O=C(Cc1csc(N2CCCNC2=O)n1)Nc1ccccc1OC(F)F [SN00781228],8.7%
12,COCCOCC(C)NC(=O)Cc1csc(N2CCCNC2=O)n1 (centres unmarked) [SN00781237],11.2%
13,Nc1cc(C2CCNCC2)[nH]n1 [SN00781241],7.2%
14,C1CNCC2CCCN2C1 (centres unmarked) [SN00781270],3.1%
15,Cc1ccccc1-c1noc(Cn2c(-c3ccccn3)noc2=O)n1 [SN00781291],0.0%
16,CCCc1noc(Cn2c(-c3ccc(OC)c(OC)c3)noc2=O)n1 [SN00781301],0.0%
17,O=C(NCC1CN2CCCC2CO1)c1ccccc1-n1cnnn1 (centres unmarked) [SN00781319],0.0%
18,Cc1ccc([N+](=O)[O-])cc1NC(=O)N1CCC(n2cncn2)CC1 [SN00781334],0.0%
19,O=C(Cn1c(-c2ccccn2)noc1=O)N1CCc2sccc2C1 [SN00781376],0.0%

row,SMILES,% Inhibition n=1 48h
1,O=C(Cn1c(-c2ccccn2)noc1=O)C12CC3CC(CC(C3)C1)C2 [SN00781381],21.7%
2,O=C(Cn1c(-c2cccnc2)noc1=O)NCC1CCCO1 (centres unmarked) [SN00781423],0.0%
3,CCn1c(Cn2c(-c3cccnc3)noc2=O)nc2c(F)cccc21 [SN00781429],0.0%
4,O=C(Cn1c(-c2ncccn2)noc1=O)N1CCCCC1 [SN00781438],1.7%
5,Cn1ncc2c1CCCC2NC(=O)N1CCCCC(N2CCCC2)C1 (centres unmarked) [SN00781466],13.9%
6,Cc1csc(C2CCN(C(=O)c3ccccc3[N+](=O)[O-])CC2)n1 [SN00781474],8.2%
7,CCc1csc(C2CCCN(C(=O)c3ccc4c(c3)OCO4)C2)n1 (centres unmarked) [SN00781524],0.0%
8,Cc1csc(C2CCCCN2)n1 (centres unmarked) [SN00781548],6.1%
9,COCCN1CCN(c2nc(-c3ccncc3)nc3c2CCC3)CC1 [SN00781610],15.0%
10,COc1ccc(-n2ccn3c(CCC(=O)Nc4cc(C)cc(C)c4)nnc3c2=O)cc1 [SN00781639],16.2%
11,COCC(=O)Nc1ccc(NC(=O)c2cc3nc(C)ccc3o2)cc1 [SN00781689],14.1%
12,CN(C)C(=O)Cc1nc(CN2CCc3c(ncn3C)C2)cs1 [SN00781984],0.0%
13,Cn1cnc2c1CCN(Cc1csc(-c3ccco3)n1)C2 [SN00781992],24.5%
14,NCC1CN(C2CC2)CCO1 (centres unmarked) [SN00782004],23.7%
15,CCOc1cc(F)ccc1NC(=O)N1CCCC(N2CCCC2=O)C1 (centres unmarked) [SN00782090],7.0%
16,Cc1ncc(C(=O)NC2C3CCCOC3C2(C)C)s1 (centres unmarked) [SN00782098],9.0%
17,CC1(C)C(NC(=O)Nc2ccc([N+](=O)[O-])cc2)C2CCCOC21 (centres unmarked) [SN00782105],16.3%
18,Cc1cc(C)n(Cc2ccc(C(=O)N3CCN(Cc4n[nH]c(C)n4)CC3)cc2)n1 [SN00782137],1.5%
19,COc1ccc(C(NC(=O)CN2CCN(Cc3n[nH]c(C)n3)CC2)C(C)C)cc1 (centres unmarked) [SN00782152],0.6%
